# Assay results reported in patent US20190076434A1, “METHODS OF TREATING PERIPHERAL VASCULAR DISEASES, INCLUDING SYSTEMIC SCLEROSIS VASCULOPATHY” (UNIVERSITY OF UTAH RESEARCH FOUNDATION, priority 2016, published 2019).
# Legend:
# patients with SSc [1] = tested on: patients with SSc
# patients with SSc [2] = assay: Example 2: brachial artery flow-mediated dilation (FMD), double-blind randomized crossover, BH4 vs placebo; type: in vivo, human
# Excerpt: Methods: Subjects. Eleven subjects with SSc (3 men and 8 women) were recruited from the University of Utah SSc clinic to participate in the current study. All subjects had either a diagnosis of SSc as accepted by the American College of Rheumatology or early SSc as described by Leroy and […]. All subjects gave their written informed consent before participation. Protocol approval and written informed consent were obtained, according to the University of Utah and Salt Lake City Veterans Affairs Medical Center (VAMC) Institutional Review Board, in accordance with the principles outlined in the Declaration of Helsinki. All data collection took place in the Utah Vascular Research Laboratory at the Salt Lake City VAMC Geriatric Research, Education, and Clinical Center. Experimental Design. […] Subjects consumed a standardized breakfast and were administered oral BH4 (10 mg/kg) or placebo five hours prior arrival at the laboratory. Measurements were taken at the same time of day to eliminate any diurnal effects and after having abstained from food (not including the standardized breakfast), alcohol, caffeine, cardiovascular-acting medications, and exercise for ≥12 hours. […] Heart rate was monitored from a standard 3-lead ECG. […] FMD was quantified as the maximal change in BA diameter after cuff release. NMD was quantified as the maximal change in BA diameter after sublingual nitroglycerin supplementation. […] Shear rate was calculated according to the equation: shear rate (s-1)=(Vmean·8)/vessel diameter. Blood flow was calculated as per the equation: blood flow (mL·min)=(blood velocity×π)×(vessel diameter/2)2×(60). Cumulative shear rate cumulative area under the curve at the time of peak BA vasodilation was integrated with the trapezoidal rule and calculated as per the following equation: τ([…]]). Forearm vascular conductance was calculated according to the equation: […]. Forearm vascular resistance was calculated according to the equation: […]. […] Paired, one-tailed t-tests were used to identify significant changes in measured variables between placebo and BH4 conditions. […]
# patients with SSc [3] = assay: Example 2: seated brachial artery blood pressure and mean arterial pressure, BH4 vs placebo; type: in vivo, human; settings: five hours after oral BH4 10 mg/kg
# Protocol: Experimental Design. A controlled, randomized, double-blind, crossover experimental design with two conditions, BH4 and placebo, was used, with a washout period of ≥5 days between conditions. Subjects consumed a standardized breakfast and were administered oral BH4 (10 mg/kg) or placebo five hours prior arrival at the laboratory. Measurements were taken at the same time of day to eliminate any diurnal effects and after having abstained from food (not including the standardized breakfast), alcohol, caffeine, cardiovascular-acting medications, and exercise for ≥12 hours. In premenopausal women, measurements were performed during the early follicular phase of the menstrual cycle.
# Blood Pressure. Seated BA blood pressure measurements were made with a semi-automated BP device (Tango+, SunTech, Morrisville, N.C.) in triplicate after 5 min in the upright seated position with the arm at heart level and under quiet, comfortable, ambient (˜22° C.) laboratory conditions. Mean arterial pressure (MAP) was calculated using the equation: ⅓ systolic blood pressure+⅔ diastolic blood pressure.
# Statistics. Statistics were performed using SPSS software (IBM, Chicago, Ill.). Paired, one-tailed t-tests were used to identify significant changes in measured variables between placebo and BH4 conditions. Statistical significance was set at P<0.05 for all analyses. Unless indicated otherwise, data are presented as Means±SEM.
# [4] = one SSc subject, BH4 vs placebo, data not shown
# [5] = 11 SSc patients, five hours after oral BH4 10 mg/kg, P<0.05
smiles,measurement,setting,value
"C[C@H](O)[C@H](O)[C@H]1CNc2nc(N)[nH]c(=O)c2N1 [BH4, tetrahydrobiopterin]",blood pressure,"patients with SSc [1]; human, in vivo",125/77
same,"FMD, increase compared to placebo","patients with SSc [1]; one SSc subject, BH4 vs placebo, FIG. 7A",73%
same,"peak hyperemia, increase compared to placebo","patients with SSc [1]; one SSc subject, BH4 vs placebo, FIG. 7B",63%
same,"area under the curve for hyperemia, increase compared to placebo","patients with SSc [1]; one SSc subject, BH4 vs placebo, FIG. 7C",~160%
same,"resting blood flow in the forearm, increase compared to placebo",patients with SSc [1]; [4],~20%
same,"resting blood flow in the leg, increase compared to placebo",patients with SSc [1]; [4],34%
same,"absolute FMD, improvement vs. placebo",patients with SSc [2]; [5],44%
same,"percentage FMD, improvement vs. placebo",patients with SSc [2]; [5],48%
same,FMD value in the BH4 condition,"patients with SSc [2]; second study, placebo FMD 3.2%, corresponds to highest tertile of FMD",5.6%
same,casual seated diastolic blood pressure,"patients with SSc [3]; Means ± SEM, P>0.05 vs placebo",68±2 mmHg
same,casual seated systolic blood pressure,"patients with SSc [3]; Means ± SEM, P>0.05 vs placebo",109±5 mmHg
same,"MAP, difference in the BH4 condition compared to placebo",patients with SSc [3]; P<0.05 vs placebo,~−2 mmHg
